These results are taken from US7728039B2, “Biphenyl and Naphthyl-Phenyl Hydroxamic Acid Derivatives” (Sigma-Tau Industrie Farmaceutiche Riunite S.p.A., priority 2005, dated 2010).

In test [1] the test system is NB4 promyelocytic leukaemia cells. The test is described as follows: Differentiation of NB4 tumour cells by nitroblue tetrazolium (NBT) reduction, with or without ATRA. It is filed as cell-based, human. The following applies: 3 days, NBT-reducing activity; for AC50: combined with suboptimal ATRA (5 nM); for Differentiation AC50: compound alone (without ATRA). From the text:
Relevant aspects of the differentiation program set in motion by ATRA in APL cells can be reproduced in primary cultures of leukemic blasts and in the derived NB4 cell line, which is a unique model for the study of the pharmacologic activity of ATRA and derivatives. Pharmacological concentrations of ATRA arrest the growth of NB4 blasts and differentiate them into cells that resemble mature neutrophils. This is followed by a slow process of apoptosis. […] In particular, the differentiation of NB4 tumour cells induced by the compounds was determined by nitroblue tetrazolium (NBT) reduction. NB4 promyelocytic leukaemia cells were seeded at a density of 150000 cells/ml in RPMI 1640 medium containing 10% FCS. To measure the cytodifferentiating effect of the molecules, tumour cells were treated with the compounds at different concentrations starting from at least 0.4 μM to 0.01 μM, whereas to measure the enhancing action of the molecules of ATRA activity, NB4 cells were treated with increasing concentrations of the molecules in the presence or absence of ATRA at a suboptimal concentration (5 nM).
Tumour cells were incubated for 3 days at 37° C. without replacing the medium culture. To measure the prodifferentiative effect, 500,000 cells were collected, centrifuged and resuspended in 1 ml of RPMI 1640 medium containing 10% FCS, 1 mg/ml of nitroblue tetrazolium (NBT) and 100 ng of PMA (4-phorbol-12-myristate-13-acetate). The tumour cells resuspended were incubated at 37° C. for 60 min. At the end of the incubation, tumour cells were centrifuged and the pellet was resuspended in 1 ml of PBS containing Triton ×100 at 10%. The samples were sonicated and the absorbance was determined at 540 nm with a spectrophotometer. Differentiation of tumor cells as AC50 (activating concentration) was evaluated as the concentration of the compound giving 50% of the maximal induction of NBT-reducing activity with or without ATRA.

Test [2] relates to NCI-H460 non-small cell carcinoma cells. The experiment in a line: Sulphorodamine B cytotoxicity test on NCI-H460 cells. It is filed as cell-based. The following applies: SRB, read-out: IC50 ± SD, NCI-H460. Here is the method:
The chemical structures of the tested compounds of the invention and of the corresponding compounds bearing a carboxylic acid group are reported in FIG. 1. […] NB4 and NCI-H460 tumour cells were grown in RPMI 1640 containing 10% foetal bovine serum (GIBCO), HCT-116 tumour cells were grown in McCoy's 5A containing 10% foetal bovine serum (GIBCO), IGROV-1 and IGROV-1/Pt were grown in DMEM containing 10% foetal bovine serum (GIBCO),
(§1) Tumour cells were seeded in 96-well tissue culture plates at approximately 10% confluence and were allowed to attach and recover for at least 24 h. Varying concentrations of the drugs were then added to each well to calculate their IC50 value (the concentration which inhibits the 50% of cell survival). The plates were incubated for 24 h at 37° C. At the end of the treatment, for NB4 tumour cells in suspension, the procedure was performed as follows: medium culture was removed by centrifugation of the plates at 1600×g for 10 min and the surnatant was removed. 250 μl PBS were added, then the plates were centrifuged at 1600×g for 10 min, the surnatant was removed. 200 μl/well of medium culture RPMI 1640 containing 10% FCS were added and the plates were incubated at 37° C. for other 48 h. The plates were centrifuged again at 1600×g for 10 min, the medium culture was removed and 200 μl PBS and 50 μl of cold 80% TCA were added. The plates were incubated on ice for at least 1 h. TCA was removed, the plates were washed 3 times for immersion in distilled-water and dried on paper and at 40° C. for 5 min. Then 200 μl of 0.4% sulphorodamine B in 1% acetic acid were added. The plates were incubated at room temperature for other 30 min. Sulphorodamine B was removed, the plates were washed for immersion in 1% acetic acid for 3 times, then they were dried on paper and at 40° C. for 5 min. Then 200 μl Tris 10 mM were added, the plates were kept under stirring for 20 min. The survival cell was determined as optical density by a Multiskan spectrofluorimeter at 540 nm. For the tumour cells in adhesion (NCI-H460 and HCT-116), the procedure was as above mentioned, except that at the end of the treatment, the plates were washed by remotion of the surnatant and addition of PBS 3 times without centrifugation. Also the last day of the assay, the surnatant was removed without centrifugation.
(§2) The amount of cells killed was calculated as the percentage decrease in sulphorodamine B binding compared with control cultures. The IC50 values (the concentration which inhibits the 50% of cell survival) were calculated with the “ALLFIT” program.

For test [3], the system named is IGROV-1/Pt (platinum-resistant ovarian carcinoma cells). The experiment in a line: Sulphorodamine B cytotoxicity test on IGROV-1/Pt cells. It is filed as cell-based. The conditions noted are these: read-out: IC50 ± SD, IGROV-1/Pt.
From the text: (§3) The cytotoxic effect of some biphenyl and phenylnaphthyl compounds bearing a hydroxamic acid group is reported herein. […] The chemical structures of the tested compounds of the invention and of the corresponding compounds bearing a carboxylic acid group are reported in FIG. 1. To test the effects of the compounds on cell growth, NB4 human promyelocytic leukaemia, NCI-H460 non-small cell carcinoma cells, H460/(R9A) (resistant to carboxylic acid-bearing compounds: ST1898, ST1926, ST1964), HCT-116 human colon carcinoma cells, IGROV-1 and IGROV-1/Pt (sensitive ovarian carcinoma and platinum-resistant ovarian carcinoma cells, respectively) were used. NB4 and NCI-H460 tumour cells were grown in RPMI 1640 containing 10% foetal bovine serum (GIBCO), HCT-116 tumour cells were grown in McCoy's 5A containing 10% foetal bovine serum (GIBCO), IGROV-1 and IGROV-1/Pt were grown in DMEM containing 10% foetal bovine serum (GIBCO),
as §1, §2

In test [4] the test system is HCT-116 human colon carcinoma cells. The test is described as follows: Sulphorodamine B cytotoxicity test on HCT-116 cells. The following applies: Table 2, SRB, read-out: IC50 ± SD, HCT-116. It is filed as cell-based.
From the text: as §3, §1, §2

In test [5] the test system is IGROV-1 (sensitive ovarian carcinoma cells). The test is described as follows: Sulphorodamine B cytotoxicity test on IGROV-1 cells. It is filed as cell-based. The conditions noted are these: read-out: IC50 ± SD, IGROV-1.
From the text: as §3, §1, §2

Test [6] has as its system NB4 human promyelocytic leukaemia. The test is described as follows: Sulphorodamine B cytotoxicity test on NB4 cells. The test is classed as cell-based.
From the text: as §3, §1, §2

Test [7] concerns NCI-H460 R9A tumour cells (H460/(R9A), resistant to carboxylic acid-bearing compounds). The experiment in a line: Sulphorodamine B cytotoxicity test on ST1926-resistant NCI-H460 R9A cells. The test is classed as cell-based. The following applies: for overcoming of resistance on H460/R9A: H460/R9A versus sensitive NCI-H460, result in words; for IC50: Table 3, resistant NCI-H460 R9A, SRB, read-out: IC50 ± SD, NCI-H460 R9A; for RI (resistance index): IC50 on resistant tumour cell line/IC50 on sensitive tumour cell line (NCI-H460 R9A / NCI-H460).
From the text: as §3, §1, §2
The resistant tumour cell line NCI H460 R9A was a clone selected for the resistance to ST1926 (Table 3). To obtain the resistant tumour cell line, the sensitive NCI-H460 tumour cells were treated with 2 μM ST1926 for 24 hours and maintained in drug-free medium for a recovering time of 7 days. Then, survived cells were cultured applying a continuous selective pressure of 2 μM (10×IC50) ST1926. Resistant NCI-H460 cells were subculture for 3-4 times before increasing ST1926 concentration to 4 μM (20×IC50). Survived cells were seeded in 96-well plates to isolate resistant cells clones and maintained in complete medium with 4 μM of ST1926. The tumour cell line was maintained at least for one week, before seeding for SRB cytotoxicity assay, in drug-free medium.
To evaluate the effect of the compound on survival cells, the sulphorodamine B test was used. […]

Where [8] appears, read: Homo sapiens, NCI-H460, Table 2, NCI-H460.
Where [9] appears, read: Homo sapiens, NB-4, Table 4, NB4 tumour cells, compound alone, read-out: IC50 (μM ± SD).

SMILES strings stand for the structures. Where two headings read alike, the source gives them in different places.

As to `O=C(/C=C/c1ccc(-c2ccc(O)c(C34CC5CC(CC(C5)C3)C4)c2)cc1)NO` [ST2992, E-3-[3′-(1-adamantyl)-4′-hydroxy-biphenyl-4-yl]-N-hydroxy-acrylamide], the AC50 (usually the concentration giving half of the maximal activity seen) in test [1] (Homo sapiens, 72 h) is 190 nM. Besides, the “Differentiation AC50” value in test [1] is “no differentiation”. In addition, the IC50 in test [2] (setting [8]) turned out to be 1200 ± 30 nM; in test [2] (Homo sapiens, NCI-H460, Table 3, sensitive NCI-H460), 1200 ± 30 nM; in test [3] (Homo sapiens, Table 2, SRB), 550 ± 50 nM; in test [4] (Homo sapiens), 3000 ± 200 nM; in test [5] (Homo sapiens, Table 2, SRB), 770 ± 50 nM; in test [6] (setting [9]), 0.68 ± 0.07 µM. The IC50 in test [7] (Homo sapiens) was determined as 1200 ± 100 nM. In addition, in test [7], the “overcoming of resistance on H460/R9A” value was “completely overcame the resistance”. For the same compound, the “RI (resistance index)” value in test [7] came to 1.0.
In the case of `O=C(/C=C/c1ccc(-c2ccc(O)cc2)cc1)NO` [ST2782, E-3-(4′-hydroxy-biphenyl-4-yl)-N-hydroxy-acrylamide], the AC50 in test [1] (Homo sapiens, 72 h) was 2470 nM. In test [1], the “Differentiation AC50” value was “no differentiation”. In addition, the IC50 was 6000 ± 900 nM in test [2] (setting [8]); 7700 ± 1600 nM in test [3] (Homo sapiens, Table 1, SRB); 6700 ± 700 nM in test [4] (Homo sapiens); 8800 ± 3000 nM in test [5] (Homo sapiens, Table 1, SRB); 2.3 ± 0.02 µM in test [6] (Homo sapiens, NB-4, Table 1, NB4, 24 h treatment, 48 h recovery, SRB, read-out: IC50 ± SD, NB4); 2.3 ± 0.02 µM in test [6] (setting [9]). In test [7] (Homo sapiens), the IC50 was 1800 ± 160 nM. For the same compound, the “overcoming of resistance on H460/R9A” value in test [7] is on record as “the same characteristic are retained”.
On to `O=C(NO)c1ccc2cc(-c3ccc(O)c(C45CC6CC(CC(C6)C4)C5)c3)ccc2c1` [ST2142, 6-[3-1-(adamantyl)-4-hydroxyphenyl]-naphthalene-2-carboxylic acid N-hydroxyamide], for which the half-maximal activity concentration (AC50) in test [1] is 310 nM. Further, the “Differentiation AC50” value in test [1] is listed as “no differentiation”. In addition, the IC50 in test [2] (Table 2, NCI-H460) came to 1000 ± 60 nM; in test [2] (Table 3, sensitive NCI-H460), 1000 ± 60 nM; in test [3] (Table 2, SRB), 1100 ± 30 nM; in test [4] it was 2900 ± 200 nM; in test [5] (Table 2, SRB) it was 650 ± 100 nM; in test [6] (Table 4, NB4 tumour cells, compound alone, read-out: IC50 (μM ± SD)) it was 2.4 ± 0.08 µM. Moreover, in test [7], the IC50 is 2200 ± 100 nM. Besides, the “overcoming of resistance on H460/R9A” value in test [7] is “completely overcame the resistance”. In test [7], the “RI (resistance index)” value is on record as 2.2.
